The nature of assay [1]: Anticancer activity against PMSA positive human PC3-PIP cells assessed as cell viability at 10 nM incubated for 72 hrs by CellTiter-Glo Luminescent Cell Viability assay relative to control. Format: functional. To be noted: read-out: Activity.
Assay [2] deals with PC-3. The assay can be described thus: Anticancer activity against PMSA negative human PC-3 cells assessed as reduction in cell viability at 10 nM incubated for 72 hrs by CellTiter-Glo Luminescent Cell Viability assay. In kind it is functional, cell-based.
The test system of a further assay is PC3-PIP cell. Kind of assay: Anticancer activity against PSMA positive human PC3-PIP cells assessed as reduction in cell viability incubated for 72 hrs by CellTiter-Glo Luminescent Cell Viability assay. Format: functional, cell-based. To be noted: dose 4-100 µM.
The test system of assay [3] is LNCaP C4-2B. The assay can be described thus: Anticancer activity against PSMA positive human LNCaP C4-2B cells assessed as cell viability at 10 nM incubated for 72 hrs by CellTiter-Glo Luminescent Cell Viability assay relative to control. Format: functional. Conditions: read-out: Activity.
Assay [4] deals with LNCaP C4-2B. The assay can be described thus: Anticancer activity against PSMA positive human LNCaP C4-2B cells assessed as cell viability at 20 nM incubated for 72 hrs by CellTiter-Glo Luminescent Cell Viability assay relative to control. In kind it is functional. Conditions: read-out: Activity.
The subject of assay [5] is LNCaP C4-2B. The assay can be described thus: Anticancer activity against PSMA positive human LNCaP C4-2B cells assessed as cell viability at 100 nM incubated for 72 hrs by CellTiter-Glo Luminescent Cell Viability assay relative to control. In kind it is functional. To be noted: read-out: Activity.
For assay [6], the system named is LNCaP C4-2B. The assay can be described thus: Anticancer activity against PSMA positive human LNCaP C4-2B cells assessed as reduction in cell viability incubated for 72 hrs by CellTiter-Glo Luminescent Cell Viability assay. Conditions: dose […]. In kind it is functional, cell-based.
The nature of assay [7]: Anticancer activity against PSMA positive human PC3-PIP cells assessed as cell viability at 4 nM incubated for 72 hrs by CellTiter-Glo Luminescent Cell Viability assay relative to control. To be noted: read-out: Activity. In kind it is functional.
Assay [8] relates to LNCaP C4-2B. The assay can be described thus: Anticancer activity against PSMA positive human LNCaP C4-2B cells assessed as reduction in cell viability at 10 nM incubated for 72 hrs by CellTiter-Glo Luminescent Cell Viability assay. In kind it is functional, cell-based.
Assay [9] is described as follows: Anticancer activity against PSMA positive human PC3-PIP cells assessed as cell viability at 100 nM incubated for 72 hrs by CellTiter-Glo Luminescent Cell Viability assay relative to control. In kind it is functional. Conditions: read-out: Activity.
The test system of assay [10] is PC-3. The assay can be described thus: Anticancer activity against PMSA negative human PC-3 cells assessed as cell viability at 10 nM incubated for 72 hrs by CellTiter-Glo Luminescent Cell Viability assay relative to control. Conditions: read-out: Activity. In kind it is functional.

SMILES strings stand for the structures. Activity calls are given as the source filed them. The rule behind the calls is not given here. Where a SMILES comes first, the peptide text is derived from it. [ ]: non-standard residue; d: D form. The star is where a group is joined. Dolaproine = CO[C@@H]([C@@H]1CCCN1)[C@@H](C)C(=O)O; Dil = CC[C@H](C)[C@H](NC)[C@@H](CC(=O)O)OC; X1 = C[C@@H](N*)[C@@H](O)c1ccccc1; NMeV = CN[C@H](C(=O)O)C(C)C

Take `CC[C@H](C)[C@@H]([C@@H](CC(=O)N1CCC[C@H]1[C@H](OC)[C@@H](C)C(=O)N[C@H](C)[C@@H](O)c1ccccc1)OC)N(C)C(=O)[C@@H](NC(=O)[C@H](C(C)C)N(C)C(=O)OCc1ccc(OC(=O)N(C)CCN(C)P(=O)(O)OCC[C@H](NC(=O)c2ccc(Cn3nnc4c3-c3ccccc3N(C(=O)CCC(=O)NCCOCCOCCOCCOCCC(=O)NCCCCCC(=O)N[C@@H](CCC(=O)N[C@@H](CCCOP(=O)(O)N[C@@H](CCC(=O)O)C(=O)O)C(=O)O)C(=O)O)c3ccccc3-4)cc2)C(=O)O)cc1)C(C)C`: the viability at 0.01 µM in assay [1] is 47.2%; in the assay with LNCaP C4-2B [3], 58.8%. Also, the outcome in the assay on PC-3 [2] was inactive. Also, the Activity result with PC3-PIP cell and in the assay with LNCaP C4-2B [6] was “Dose-Dependent Effect” in each case. The viability at 0.02 µM in the assay with LNCaP C4-2B [4] was found to be 28.7%. The viability at 0.1 µM with LNCaP C4-2B [5] was determined as 7.44%.
For the compound `CC[C@H](C)[C@@H]([C@@H](CC(=O)N1CCC[C@H]1[C@H](OC)[C@@H](C)C(=O)N[C@H](C)[C@@H](O)c1ccccc1)OC)N(C)C(=O)[C@@H](NC(=O)[C@H](C(C)C)N(C)C(=O)OCc1ccc(NC(=O)[C@H](CCCNC(N)=O)NC(=O)[C@@H](NC(=O)c2ccc(Cn3nnc4c3-c3ccccc3N(C(=O)CCC(=O)NCCOCCOCCOCCOCCC(=O)NCCCCCC(=O)N[C@@H](CCC(=O)N[C@@H](CCCOP(=O)(O)N[C@@H](CCC(=O)O)C(=O)O)C(=O)O)C(=O)O)c3ccccc3-4)cc2)C(C)C)cc1)C(C)C`, the viability at 0.004 µM in [7] is 80.9%. Further, in assay [1], the viability at 0.01 µM was less than 50%. Besides, the result with PC-3 [2] and with LNCaP C4-2B [8] was inactive. Also, the viability at 0.1 µM in assay [9] is 25.8%.
As for `CC[C@H](C)[C@@H]([C@@H](CC(=O)N1CCC[C@H]1[C@H](OC)[C@@H](C)C(=O)N[C@H](C)[C@@H](O)c1ccccc1)OC)N(C)C(=O)[C@@H](NC(=O)[C@@H](NC)C(C)C)C(C)C` (H-[NMeV]V[Dil][Dolaproine]-X1), the viability at 0.01 µM (in assay [1]; with LNCaP C4-2B [3]; with PC-3 [10]) was less than 50% each time.
